From article doi:10.1101/2021.01.22.427858v1 (biorxiv, 2021)
Where two headings read alike, the source gives them in different places.

How the values were obtained:
[1] = target: T1, Human Serum Albumin (HSA) (Homo sapiens, UniProt P02768); details: binder
[2] = target: T1, Human Serum Albumin (HSA); test: biochemical; format: binding
[3] = target: T1, Human Serum Albumin (HSA); test: differential scanning calorimetry; format: binding
[4] = target: T1, Human Serum Albumin (HSA); test: differential scanning calorimetry, bi-dose-response fit

T1 sequence (P02768 25-609): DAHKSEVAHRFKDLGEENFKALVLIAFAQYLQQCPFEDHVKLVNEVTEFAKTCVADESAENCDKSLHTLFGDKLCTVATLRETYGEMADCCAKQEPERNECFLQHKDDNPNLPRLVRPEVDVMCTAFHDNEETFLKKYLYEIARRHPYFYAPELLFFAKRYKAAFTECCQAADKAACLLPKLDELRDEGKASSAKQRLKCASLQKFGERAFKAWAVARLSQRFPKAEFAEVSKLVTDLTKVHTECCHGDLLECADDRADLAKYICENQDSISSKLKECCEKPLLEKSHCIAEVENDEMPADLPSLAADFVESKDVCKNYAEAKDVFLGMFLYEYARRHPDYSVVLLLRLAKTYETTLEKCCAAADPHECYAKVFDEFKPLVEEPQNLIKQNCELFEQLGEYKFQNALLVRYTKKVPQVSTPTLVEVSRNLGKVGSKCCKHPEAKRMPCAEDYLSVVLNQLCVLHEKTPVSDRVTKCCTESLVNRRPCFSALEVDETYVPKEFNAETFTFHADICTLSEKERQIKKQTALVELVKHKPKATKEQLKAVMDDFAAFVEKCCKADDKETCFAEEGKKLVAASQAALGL

Structure (SMILES) | dTm (C) ([1]; ligand concentration not given) | other results
C=CC1=C(C)/C(=C/c2[nH]c(Cc3[nH]c(/C=C4\NC(=O)C(C)=C4C=C)c(C)c3CCC(=O)O)c(CCC(=O)O)c2C)NC1=O [Bilirubin] | 0.30 °C | 
Cc1c(C2(c3cc(Br)c(O)c(Br)c3C)OS(=O)(=O)c3ccccc32)cc(Br)c(O)c1Br [Bromocresol Green] |  | Kd [2]: 3.31 ± 1.7 µM; dTm (C) [1]: 6.29 °C
CC(NC(C)(C)C)C(=O)c1cccc(Cl)c1 (stereo not drawn) [Buproprion] | 0.62 °C | 
Cn1c(=O)c2c(ncn2C)n(C)c1=O [Caffeine] | 0.47 °C | 
C[C@H](CS)C(=O)N1CCC[C@H]1C(=O)O [Captopril] | -0.41 °C | 
CCN(CC)CCCC(C)Nc1ccnc2cc(Cl)ccc12 (stereo not drawn) [Chloroquine] | 1.43 °C | 
CCCCCCCCCC(=O)O [Decanoic Acid] | 24.56 °C | 
C[C@H]1O[C@@H](O[C@H]2[C@@H](O)C[C@H](O[C@H]3[C@@H](O)C[C@H](O[C@H]4CC[C@@]5(C)[C@H](CC[C@@H]6[C@@H]5CC[C@]5(C)[C@@H](C7=CC(=O)OC7)CC[C@]65O)C4)O[C@@H]3C)O[C@@H]2C)C[C@H](O)[C@@H]1O [Digitoxin] |  | dTm (C) [1]: 3.92 °C
O=C1OC2(c3ccc(O)cc3Oc3cc(O)ccc32)c2ccccc21 [Fluorescein] | 7.95 °C | Kd [2]: 3.31 ± 1.7 µM
CN(C)C(=N)NC(=N)N [Metformin] | -0.31 °C | KD1 [3]: 2.01 ± 0.43 10^-6 M
COCCc1ccc(OCC(O)CNC(C)C)cc1 (stereo not drawn) [Metoprolol] | -0.40 °C | 
COc1ccc2cc([C@H](C)C(=O)O)ccc2c1 [Naproxen] |  | dTm (C) [1]: 5.52 °C
CCCCNc1ccc(C(=O)OCCN(C)C)cc1 [Tetracaine] | 3.16 °C | 
C[CH2][Hg][S]c1ccccc1C(=O)O [Thimerosal] |  | KD1 [4]: 3.13 ± 0.43 10^-6 M
C[C@]12CC[C@@H]3c4ccc(O)cc4CC[C@H]3[C@@H]1CC[C@@H]2O [β-Estradiol] | 0.92 °C | 
